Experimental findings from patent publication US20100017895A1, “Small animal model for hcv replication” (priority 2005, published 2010) are described below.

In series [1] the test system is HCV replicon in T7-11 cells. Kind of series: Liver model with T7-11 replicon cells in gamma-irradiated SCID mice. It is filed as in vivo. The following applies: 30 mg/kg SC once daily from day 25 post tumor cell implantation; within three days. As for the experimental part: To evaluate the efficacy of IFN-α in liver, T7-11 cells were directly injected into one lobe of the liver in gamma irradiated SCID mice. […] To confirm that the luciferase signal was associated with the liver, the locations of tumors were determined by physical examination at the end of study
The antiviral effect of BILN 2061 on HCV replication was also examined. BILN 2061 was administered subcutaneously at 30 mg/kg once daily starting day 25-post tumor cell implantation.
Whole body in vivo imaging.
In general terms: Replicon systems follow genome replication, usually without infectious particles.

Series [2] in a line: Pharmacokinetic (PK) data, subcutaneous route. It counts as in vivo.
For series [3], the system named is HCV replicon in T7-11 cells. Kind of series: Subcutaneous T7-11 replicon cell model in gamma-irradiated SCID mice (bioluminescence, NS5B IFA, RT-PCR, cPARP, Ki67).
Description: Efficacy studies with T7-11 implanted mice were initiated when the bioluminescence signal was stable and approximately two logs above background. […] Control animals received human albumin.
BILN 2061 was administered at 30 mg/kg once daily starting day 21-post subcutaneous implantation of T7-11 cells.
Cell implantation. Female SCID mice were shaved at the site of cell implantation and gamma-irradiated with 3 Gy either one-day prior to or on the same day as cell implant. For subcutaneous implantation, five million cells in 0.2 ml of HBSS were implanted at the right flank.
Whole body in vivo imaging. Anesthetized mice were injected intraperitoneally with 150 mg/kg of luciferin (Xenogen Corporation, Alameda, Calif.). After 10-20 minutes, mice were imaged using a CCD camera in the Xenogen IVIS™ imaging system. The bioluminescence signal intensity was quantified using Living Image Software (Xenogen Corporation, Alameda, Calif.).
Statistical analysis. Differences in bioluminescence signal between control and treatment groups of mice were compared by the two-tailed Mann-Whitney test. Differences in signal among the control, treatment and rebound groups of mice and among combination groups were compared by the nonparametric Kruskal-Wallis test A P-value <0.05 was considered significant.

Take BILN 2061: the “fold decline in bioluminescence compared to the untreated control group” value in series [1] is given as 10 fold. In addition, in series [2], the “duration of sustained plasma exposure” value is “more than 24 hr”. Besides, the “signal after treatment was terminated” value in series [3] (30 mg/kg SC QD three days, several days after termination) was “returned to the levels similar to the untreated control group”. Also, the “adverse effect on the replicon-containing cells” value in series [3] (30 mg/kg SC once daily for three days) is reported as “did not have any adverse effect on the replicon-containing cells”. In series [3] (30 mg/kg SC once daily from day 21, within three days), the “decrease of bioluminescence signal compared to the control group” value was “approximately two”. Besides, in series [3] (two days after treatment, SC daily from day 18, BILN 2061 30 mg/kg and/or IFN-α 15,000 IU), the “fold decrease of mean bioluminescence signal as compared to the control group” value is reported as 16 fold.
As to Interleukin 2 [IL-2], in series [3] (1 mg/kg, over 5 days of treatment), the “effect on bioluminescence signal” value is on record as “no effect”.
